# Test results taken from patent US20120101137A1, “NOVEL THIOPHENECARBOXAMIDE DERIVATIVE AND PHARMACEUTICAL USE THEREOF” (SANWA KAGAKU KENKYUSHO CO., LTD., priority 2009, published 2012).
# Structures can show the parent of a compound that is named as a salt.
# Target: T1, human glucokinase (Homo sapiens, UniProt P35557)
# T1 construct: made in house; host or cells: E. coli
# T1 sequence (P35557 16-465): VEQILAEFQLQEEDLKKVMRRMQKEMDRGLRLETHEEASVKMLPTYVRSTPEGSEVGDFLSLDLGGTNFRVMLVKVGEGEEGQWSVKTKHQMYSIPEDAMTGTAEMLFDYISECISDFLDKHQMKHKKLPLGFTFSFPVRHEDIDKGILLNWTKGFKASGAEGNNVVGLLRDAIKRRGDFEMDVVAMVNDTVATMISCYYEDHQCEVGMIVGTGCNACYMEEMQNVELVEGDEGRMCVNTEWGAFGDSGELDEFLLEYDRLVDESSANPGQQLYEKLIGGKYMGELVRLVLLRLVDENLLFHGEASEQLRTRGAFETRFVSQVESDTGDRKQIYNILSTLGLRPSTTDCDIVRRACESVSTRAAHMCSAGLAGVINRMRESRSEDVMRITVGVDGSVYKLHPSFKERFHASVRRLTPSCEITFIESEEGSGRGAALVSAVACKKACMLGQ
# Experiment: Measurement of glucokinase activity (G6PDH-coupled, absorbance at 340 nm)
# Format: biochemical
# Settings: read-out: GK activation effect (%)
# Method: To the EcoRI, HindIII site of a pQE-80 expression vector were introduced a DNA fragment in which the same restriction enzyme site had been added to the N-terminal deficiency (1-15 amino acids deficiency)-encoding region of a human GK. E. coli was transformed by using this plasmid to express a human glucokinase, and purification was conducted as follows.
# A fungus body that had been collected from 200 ml of an E. coli culture solution was collected and suspended in 20 ml of Extraction buffer A (20 mM HEPES, pH 8.0, 1 mM MgCl2, 150 mM NaCl, 2 mM mercaptoethanol, 0.25 mg/ml lysozyme, […] sodium azide), and the suspension was stood still at room temperature for 5 minutes. 20 ml of Extraction buffer B (1.5 M NaCl, 100 mM CaCl2, 100 mM MgCl2, 0.02 mg/ml DNA catabolic enzyme 1, a protease inhibitor tablet (Complete (registered trademark) 1697498): one tablet per 20 ml of the buffer) was added therero, followed by standing still at room temperature for 5 minutes. The extract liquid was then centrifuged by 15,000 g for 30 minutes at 4° C., and the supernatant was used as an E. coli extract liquid. The E. coli extract liquid was filtered by a 0.45 μm filter and applied to an Ni-NTA agarose 2 mL bed that had been equilibrated with a buffer (20 mM HEPES pH 8.0, 0.5 M NaCl) comprising 20 mM of imidazole. The bed was washed with about 10 ml of a washing buffer and eluted stepwise with buffers (20 mM HEPES pH 8.0, 0.5 M NaCl) each comprising imidazole by from 40 to 500 mM. Each of the column fractions was analyzed by using SDS gel electrophoresis, and the fraction comprising hGK (MW: 52 KDa) was concentrated. The concentrated sample was then passed through a Sephacryl S-200HR (11/60) gel filtration column and eluted with buffer B (20 mM HEPES, pH 8.0, 1 mM MgCl2, 150 mM NaCl, 1 mM DTT). The eluted fraction was analyzed by SDS gel electrophoresis, and the fraction comprising hGK was concentrated. Finally, 50% glycerol was added to the fraction, and the fraction was stored at −20° C.
# 178 μl of GK assay mix (25 mM Hepes buffer (pH 7.1), 25 mM KCl, 2 mM MgCl2, 1 mM NADP, 1 mM dithiotheitol, 2 unit/mL G6PDH, 5 mM D-glucose, a suitable amount of GK) was added to a UV permeable 96-well plate. 2 μl of the test compound dissolved in DMSO was added thereto, followed by standing still at room temperature for 10 minutes, and 20 μl al of 20 mM ATP was then added thereto to start a reaction. An absorbance at 340 nm was measured by Spectra Max Plus for 5 minutes at intervals of 30 seconds at room temperature, and the compound was evaluated in the reaction at the first 3 minutes.
row,Structure (SMILES),activation at 10 µM [%]
1,"Cc1sc([C@@H]2C[C@@H](F)CN2C(=O)CNS(C)(=O)=O)cc1C(=O)Nc1ncc(F)s1 [Example 12, (−)-5-[(2S,4R)-4-Fluoro-1-(2-methanesulfonylaminoacetyl)pyrrolidin-2-yl]-2-methylthiophene-3-carboxylic acid (5-fluorothiazol-2-yl)amide]",630
2,"CC(=O)N[C@@H](C)C(=O)N1C[C@H](F)C[C@H]1c1cc(C(=O)Nc2ncc(F)s2)c(C)s1 [Example 23, (−)-5-[(2S,4R)-1-((S)-2-Acetylaminopropionyl)-4-fluoropyrrolidin-2-yl]-2-methylthiophene-3-carboxylic acid (5-fluorothiazol-2-yl)amide]",641

# Same assay, conditions: test compound at final concentration of 10 μM, 5 mM D-glucose, in comparison with a well that did not comprise the compound; read-out: GK activation effect (%)
row,Structure (SMILES),activation at 10 µM [%]
1,"Cc1sc(C2CCCN2C(=O)CNC(N)=O)cc1C(=O)Nc1ncc(F)s1 (single isomer, unassigned; (-)) [Example 10, (−)-2-Methyl-5-[1-(2-ureidoacetyl)pyrrolidin-2-yl]thiophene-3-carboxylic acid (5-fluorothiazol-2-yl)amide]",600
2,"Cc1sc(C2CCCN2C(=O)CN(C)CCCCC(=O)O)cc1C(=O)Nc1ncc(Cl)s1 (stereo not drawn) [Example 79, 5-[(2-{2-[4-(5-Chlorothiazol-2-ylcarbamoyl)-5-methylthiophen-2-yl]pyrrolidin-1-yl}-2-oxoethyl)methylamino]pentanoic acid hydrochloride]",717

# More lines, now with the values ahead:
row,activation at 10 µM [%],Structure (SMILES)
1,613,"Cc1sc(C2CCCN2C(=O)[C@H](C)NC(N)=O)cc1C(=O)Nc1ncc(F)s1 (single isomer, unassigned; (-)) [Example 22]"
2,801,"Cc1sc([C@@H]2C[C@@H](F)CN2C(=O)CN(C)CC(=O)O)cc1C(=O)Nc1ncc(F)s1 [Example 38, [(2-{(2S,4R)-4-Fluoro-2-[4-(5-fluorothiazol-2-ylcarbamoyl)-5-methylthiophen-2-yl]pyrrolidin-1-yl}-2-oxoethyl)methylamino]acetic acid hydrochloride]"
3,695,"Cc1sc(C2CCCN2C(=O)CN(C)CCCCC(=O)O)cc1C(=O)Nc1ncc(F)s1 (stereo not drawn) [Example 78, 5-[(2-{2-[4-(5-Fluorothiazol-2-ylcarbamoyl)-5-methylthiophen-2-yl}pyrrolidin-1-yl]-2-oxoethyl)methylamino]pentanoic acid hydrochloride]"
4,752,"CCCCCN(CC(=O)O)CC(=O)N1C[C@H](F)C[C@H]1c1cc(C(=O)Nc2ncc(F)s2)c(C)s1 [Example 80, [(2-[(2S,4R)-4-Fluoro-2-[4-(5-fluorothiazol-2-ylcarbamoyl)-5-methylthiophen-2-yl]pyrrolidin-1-yl]-2-oxoethyl)pentylamino]acetic acid]"
5,787,"CCCCCN(CC(=O)O)CC(=O)N1CCCC1c1cc(C(=O)Nc2ncc(F)s2)c(C)s1 (stereo not drawn) [Example 81, [(2-[2-[4-(5-Fluorothiazol-2-ylcarbamoyl)-5-methylthiophen-2-yl]pyrrolidin-1-yl]-2-oxoethyl)pentylamino]acetic acid]"
